Source: patent US20250325256A1, “LIPID PATCH” (SENSACH AB, priority 2021, published 2025)
Read-outs that look alike come from different tables or passages of the source.

Experiments:
[1] = Reverse iontophoretic extraction of Trp and Kyn in side-by-side cells; format: in vitro ADME, pig; conditions: for Flux at anode / Flux at cathode / Cumulative amount at anode / Cumulative amount at cathode: mean ± SEM
Description: Due to the small molecular weight, Trp and Kyn are good candidates for non-invasive monitoring as their passive permeation across the skin membrane is not restricted by the SC's ‘500 Dalton’ rule. Moreover, because of their polar nature (zwitterionic at neutral pH), these compounds are perfect candidates for extraction by reverse iontophoresis. The non-invasive reverse iontophoretic sampling of Trp and Kyn was conducted in vitro using side-by-side cells consisting of two receptor compartments (anodal & cathodal) and a subdermal compartment. Reverse iontophoretic and passive extraction experiments were performed using identical experimental conditions. […] The reverse iontophoretic extraction was performed by application of a constant current 0.3 mA ([…]) for 6 hours in total. Sampling was performed every hour by withdrawing 1 mL of receptor solution and the amount of permeated compound was determined by HPLC-UV. […] The reservoir consists primarily of amino acids and amino acid derivatives originating from proteolysis of filaggrin.
(§1) Pig skin, purchased from a local abattoir, was gently cleaned post-sacrifice under cold running water. The skin from abdomen or from the inside of the outer ear was used as in vitro skin model. The hair was trimmed and the skin was dermatomed to a final thickness of 750 μm (Dermatome, Integra LifeSciences, Plainsboro, NJ, USA). Skin samples were then wrapped individually in Parafilm™ and kept at −20° C. for not more than three months until use. Prior to extraction experiments, skin was cut into 4 cm^2 membranes while still being frozen. Prepared skin membranes were then left at ambient environment for 30 minutes to thaw and obtain room temperature. The integrity of each skin membrane was visually inspected against the light in order to ensure that there were no visible damages (holes). Hairs were then further trimmed with scissors and skin was gently rinsed under cold running water.
The Ag/AgCl electrode couple were preferred over platinum because it avoids the sharp decrease in the pH of the solution as their electrochemistry occurs at voltages considerably lower than those required for electrolysis of water. The electrodes were prepared by making a small loop at one of the ends of the silver wire and dipping it into the molten silver chloride in order to coat the loop with AgCl. After cooling, anodal electrodes were prepared by conditioning AgCl coated loops overnight against a platinum wire anode (0.2 mm in diameter, Sigma), at 0.3 mA with 50 mM NaCl as an electrolyte solution resulting in the formation of a layer of silver on the outer surface of the electrodes.
where zp, up, cp are the charge, mobility and concentration of the permeant, ID is the current density (=I/A), F is the Faraday's constant and summation includes all the species in solution that can carry the charge, v is the solvent velocity. Electromigration is a direct cause of current application, which leads to a formation of an electric field across the skin.

[2] = Passive diffusion extraction of Trp and Kyn; format: in vitro ADME, pig; conditions: for Normalized cumulative amount Passive / Cumulative amount Passive / Flux Passive: mean ± SEM
Description: as §1, with “The hair was trimmed and the skin was dermatomed to a final thickness of 750 μm (Dermatome, Integra LifeSciences, Plainsboro, NJ, USA).” left out
In order to determine if reverse iontophoresis can enhance the extraction of Trp compared to their passive diffusion extraction, similar experiments were conducted without the current passage. These passive diffusion experiments were conducted using the same horizontal side-by-side cell setup in parallel to reverse iontophoresis experiments in order to ensure identical conditions. In line with reverse iontophoretic experiment, after the 6-hour sampling, subdermal compartment was emptied and experiment was allowed to continue for another 18 hours. Passive diffusion experiments were repeated four times (n=4).
Prior to HPLC-UV analysis, samples were thawed and vortexed.
Anodal, cathodal and passive fluxes of Trp and Kyn were directly calculated from the amount (mol) extracted at each sampling interval and normalized for the surface area available for extraction (0.785 cm^2) and duration of the interval (in hours). The 6-hour flux values were used for the analysis of transport direction as well for comparison between reverse iontophoretic and passive extraction efficiency. The physiochemical properties of both endogenous substances were estimated. In order to compare results, the enhancement ratio (ER) was determined after 6 hours as […]

[3] = format: in vitro ADME, pig
Description: Therefore, identical reverse iontophoretic extraction experiments were performed with an empty donor solution (i.e., neat PBS buffer pH 7.4) and the results are shown in FIG. 14. As in the previous section, Trp was extracted towards both receptor compartments, however, the main direction of extraction was towards the cathode. […] This is most likely due to the fact that the amount of extracted Kyn was below the limit of detection by means of HPLC-UV. Therefore, a more sensitive analysis technique is required for quantification of endogenously present Kyn. The cumulative amount of extracted Trp to the cathode was 0.44±0.06 nmol/cm^2 and the anode 0.22±0.05 nmol/cm^2.
Control reverse iontophoretic extraction experiments were conducted in order to estimate the levels of endogenous Trp and, potentially Kyn. It is known that Trp is present in the SC as a part of natural moisturizing factor (NMF), which primarily consists of free amino acids and their derivatives55,56. These experiments were performed using the identical experimental setup with a neat PBS buffer (pH 7.4) in the donor compartment (i.e., no Trp or Kyn being present) and 10 mM HEPES with 60 mM NaCl as background electrolyte (pH 7.4). Sampling was performed once an hour for 6 hours by withdrawing 1 mL of receptor solution and replacing it with a 1 mL of fresh HEPES buffer).

[4] = for Kcub/w / log Kcub/w: fully swollen Pn3m cubic phase (GMO/water) vs water; for bilayer/water partitioning, Kcub/w / bilayer/water partitioning, log Kcub/w: fully swollen Pn3m cubic phase (GMO/water), calculated; for partitioning into the cubic lipid bilayer compared to kynurenine: fully swollen GMO cubic phase
Description: Four concentrations of Trp and Kyn in a range 0.125 mM to 1 mM, corresponding to lipid:Trp(Kyn) ratio in the range 7200:1-900:1, were prepared in Milli-Q water in order to investigate the effect of concertation on the partitioning. The fully swollen cubic phases (˜0.25 g) were prepared by mixing the appropriate amount of GMO with an excess of Milli-Q water (1:1 weight ratio) in a 1.7 mL glass vials and left to equilibrate for 7 days. When samples were equilibrated (typically within 2 days a glass-clear and non-floating cubic phase was formed), each vial was checked between cross polarizers to ensure that no birefringence could be observed. The excess of water was then removed and 500 μL of solution with different concentrations of Trp/Kyn (molar ratio 1:1) were added to each vial. Final samples were allowed to equilibrate with respect to Trp and Kyn partitioning between the lipid bilayer and the aqueous phase. First sampling was performed after one week of equilibration by withdrawing 50 μL of the aqueous phase. Second sampling was performed in identical manner after 2 weeks of equilibration to investigate the time aspect on the partitioning. All samples collected during the partition study were diluted to a final volume 500 μL with Milli-Q water and filtered with a 0.2 μm syringe filters (13 mm PTFE membrane, VWR International, USA) prior to the HPLC-UV analysis. All partition experiments were performed in triplicates.
The lipid bilayer/water partition coefficient, Kbl/w, may be defined as
where [X] is the concentration of an endogenous substance of interest (e.g., Trp and Kyn) in the bilayer and in water. While concertation of a substance in the aqueous phase can easily be determined by a suitable analytical procedure (e.g., HPLC, LC-MS etc.), determination of the concertation in the bilayer requires two assumptions. […] The second assumption is that the concentration of an endogenous substance in the water channels of the cubic phase is the same as in the water bulk phase, which is based on the equilibrium between chemical potentials of endogenous substances in water channels and in the bulk phase. Thus, the partition coefficient may be calculated by rewriting the Eq. 2 as follows
where Vw is the volume of a water solution containing endogenous substance X added to the cubic phase, [X]0w is the initial concentration of an endogenous substance, [X]w is the concentration of endogenous substance in the water phase after equilibration, Vbl is the volume of GMO, Vcube is the volume of water that was added to GMO to form a cubic phase.
The quantification of Trp and Kyn was performed by HPLC-UV system (Agilent 1100 Series, Germany). The chromatographic separation of Trp and Kyn was carried out on 250 mm×4.6 mm Kromasil C18 column with particle size of 5 μm (AkzoNobel, Bellefonte, USA). Endogenous substances were separated by gradient elution using mobile phase A consisting of 10 mM NaH2PO4 (pH 2.8) and mobile phase B consisting of 100% MeOH at 0.9 mL/min flow rate and 40° C. column temperature. […] The total run time was 17 minutes and injection volume was set to 20 μL. Detection of Trp and Kyn was performed at their UV absorbance maxima, at 280 nm and 360 nm, respectively. Stock solutions of 10 mM of Trp and Kyn for calibration curve were prepared in Milli-Q water and kept in the freezer (−20° C.) for no longer than one day after preparation. Calibration standards for calibration curve were analyzed in the range 0.78 μM to 100 μM (R^2>0.999) the same day as the experimental samples.

[5] = pH 7.4, after 4 hours of iontophoresis
[6] = receptor pH 4.0, after 6 hours of iontophoresis
[7] = receptor pH 4.0, donor pH 7.4, after 6 h
[8] = receptor pH 7.4, after 6 hours of iontophoresis
[9] = receptor pH 7.4, donor pH 7.4, after 6 h
[10] = receptor pH 9.0, after 6 hours of iontophoresis
[11] = receptor pH 9.0, donor pH 7.4, after 6 h
[12] = pH 4.0, 24 h amount minus first 6 hours
[13] = pH 7.4, 24 h amount minus first 6 hours
[14] = pH 9.0, 24 h amount minus first 6 hours
[15] = pH 7.4, after the first hour of current application
[16] = receptor pH 4.0, iontophoretic vs passive cumulative amount after 6 hours
[17] = receptor pH 7.4, iontophoretic vs passive cumulative amount after 6 hours
[18] = receptor pH 9.0, iontophoretic vs passive cumulative amount after 6 hours

SMILES: Nc1ccccc1C(=O)C[C@H](N)C(=O)O [Kyn, L-kynurenine]
- cumulative amount extracted towards the cathode (QC) [1, 5]: 2.50±0.44 nmol/cm^2
- Flux at anode [1, 6]: 0.18 ± 0.09 nmol/(h · cm^2)
- Flux at cathode [1, 6]: 0.93 ± 0.23 nmol/(h · cm^2)
- Cumulative amount at anode [1, 7]: 0.91 ± 0.44 nmol/cm^2
- Cumulative amount at cathode [1, 7]: 3.76 ± 0.89 nmol/cm^2
- Flux at anode [1, 8]: 0.11 ± 0.08 nmol/(h · cm^2)
- Flux at cathode [1, 8]: 1.88 ± 0.18 nmol/(h · cm^2)
- Cumulative amount at anode [1, 9]: 0.25 ± 0.17 nmol/cm^2
- Cumulative amount at cathode [1, 9]: 5.97 ± 0.73 nmol/cm^2
- Flux at anode [1, 10]: 0.52 ± 0.23 nmol/(h · cm^2)
- Flux at cathode [1, 10]: 1.99 ± 0.16 nmol/(h · cm^2)
- Cumulative amount at anode [1, 11]: 0.64 ± 0.27 nmol/cm^2
- Cumulative amount at cathode [1, 11]: 6.38 ± 0.62 nmol/cm^2
- Normalized cumulative amount Passive [2, 12]: 0.27 ± 0.27 nmol/cm^2
- Normalized cumulative amount Passive [2, 13]: 2.59 ± 1.50 nmol/cm^2
- Normalized cumulative amount Passive [2, 14]: 3.81 ± 0.93 nmol/cm^2
- Cumulative amount Passive [2, 7]: <LOQ
- Cumulative amount Passive [2, 9]: <LOQ
- Cumulative amount Passive [2, 11]: <LOQ
- detection of endogenous Kyn [3]: no Kyn was detected
- Kcub/w [4]: 1.3
- log Kcub/w [4]: 0.1
- bilayer/water partitioning, Kcub/w [4]: 1.5
- bilayer/water partitioning, log Kcub/w [4]: 0.2

SMILES: N[C@@H](Cc1c[nH]c2ccccc12)C(=O)O [Trp, L-tryptophan]
- cumulative amount extracted towards the cathode (QC) [1, 5]: 3.59±0.43 nmol/cm^2
- cumulative amount extracted to the anode (QA) ([1]; pH 7.4, after 5 hours of current application): 1.03±0.08 nmol/cm^2
- cumulative amount at cathode, times higher than at anode ([1]; pH 7.4, after 6 hours): ~6
- cumulative amount extracted to the anode (QA) [1, 15]: 0.28±0.06 nmol/cm^2
- cumulative amount extracted towards the cathode (QC) [1, 15]: 0.49±0.04 nmol/cm^2
- Flux at anode [1, 6]: 0.35 ± 0.12 nmol/(h · cm^2)
- Flux at cathode [1, 6]: 1.03 ± 0.21 nmol/(h · cm^2)
- Cumulative amount at anode [1, 7]: 2.01 ± 0.65 nmol/cm^2
- Cumulative amount at cathode [1, 7]: 4.39 ± 0.87 nmol/cm^2
- Ratio Trp/Kyn (after 6 h) ([1]; receptor pH 4.0, from cathode fluxes): 1.01
- Ratio Trp/Kyn (after 6 h) ([1]; receptor pH 4.0, from cumulative amounts at the cathode): 1.35 ± 0.24
- ER Anode [1, 16]: 11
- ER Cathode [1, 16]: 24
- Flux at anode [1, 8]: 0.24 ± 0.07 nmol/(h · cm^2)
- Flux at cathode [1, 8]: 2.02 ± 0.19 nmol/(h · cm^2)
- Cumulative amount at anode [1, 9]: 1.27±0.13 nmol/cm^2
- Cumulative amount at cathode [1, 9]: 7.36±0.75 nmol/cm^2
- Ratio Trp/Kyn (after 6 h) ([1]; receptor pH 7.4, from cathode fluxes): 1.07
- Ratio Trp/Kyn (after 6 h) ([1]; receptor pH 7.4, from cumulative amounts at the cathode): 1.25 ± 0.03
- ER Anode [1, 17]: 2
- ER Cathode [1, 17]: ~12
- Flux at anode [1, 10]: 0.69 ± 0.23 nmol/(h · cm^2)
- Flux at cathode [1, 10]: 2.32 ± 0.15 nmol/(h · cm^2)
- Cumulative amount at anode [1, 11]: 1.62 ± 0.26 nmol/cm^2
- Cumulative amount at cathode [1, 11]: 8.15 ± 0.59 nmol/cm^2
- Ratio Trp/Kyn (after 6 h) ([1]; receptor pH 9.0, from cathode fluxes): 1.17
- Ratio Trp/Kyn (after 6 h) ([1]; receptor pH 9.0, from cumulative amounts at the cathode): 1.29 ± 0.03
- ER Anode [1, 18]: 2
- ER Cathode [1, 18]: 11
- Normalized cumulative amount Passive [2, 12]: 0.49 ± 0.49 nmol/cm^2
- Ratio (Trp/Kyn) Passive ([2]; pH 4.0, from normalized cumulative amounts): 1.81
- Normalized cumulative amount Passive [2, 13]: 2.87 ± 1.66 nmol/cm^2
- cumulative amount by passive diffusion (QP) ([2]; pH 7.4, after 5 hours): 0.54±0.12 nmol/cm^2
- cumulative amount by passive diffusion (QP) ([2]; pH 7.4, after the first hour): 0.30±0.04 nmol/cm^2
- Ratio (Trp/Kyn) Passive ([2]; pH 7.4, from normalized cumulative amounts): 1.27
- Normalized cumulative amount Passive [2, 14]: 3.50 ± 0.48 nmol/cm^2
- Ratio (Trp/Kyn) Passive ([2]; pH 9.0, from normalized cumulative amounts): 1.22 ± 0.19
- Flux Passive ([2]; receptor pH 4.0, after 6 hours): 0.01 ± 0.01 nmol/(h · cm^2)
- Cumulative amount Passive [2, 7]: 0.18±0.18 nmol/cm^2
- Flux Passive ([2]; receptor pH 7.4, after 6 hours): 0.07 ± 0.03 nmol/(h · cm^2)
- Cumulative amount Passive [2, 9]: 0.62±0.13 nmol/cm^2
- Flux Passive ([2]; receptor pH 9.0, after 6 hours): 0.10 ± 0.03 nmol/(h · cm^2)
- Cumulative amount Passive [2, 11]: 0.72±0.09 nmol/cm^2
- contribution of endogenous Trp to the total cumulative amount of extracted Trp (at the cathode) ([3]; pig, 6 h, pH 7.4): approximately 6%
- cumulative amount of extracted endogenous Trp to the anode ([3]; pig, 6 h, pH 7.4): 0.22±0.05 nmol/cm^2
- cumulative amount of extracted endogenous Trp to the cathode ([3]; pig, 6 h, pH 7.4): 0.44±0.06 nmol/cm^2
- partitioning into the cubic lipid bilayer compared to kynurenine [4]: twice as high
- partitioning into the cubic lipid bilayer compared to kynurenine ([4]; listed as tryptophan): approximately twice as high
- Kcub/w [4]: 2.2
- log Kcub/w [4]: 0.3
- bilayer/water partitioning, Kcub/w [4]: 3.0
- bilayer/water partitioning, log Kcub/w [4]: 0.5
